The text below walks through data of patent publication US9265773B2, “Tetracyclic heterocycle compounds and methods of use thereof for the treatment of viral diseases” (priority 2011, dated 2016).

In one assay the test system is HCV replicon genotype 1b. As to the kind of experiment: microbe, parasite or virus in culture. Format: cell-based. The note with it: genotype 1b replicon cells, incubated 96 hours, NS3/4A ELISA readout. (A replicon is a self-replicating genome or part of one, used to study replication in cells.)
The next assay concerns HCV replicon genotype 1a. Kind of assay: microbe, parasite or virus in culture. Format: cell-based. The note with it: genotype 1a replicon cells, incubated 96 hours, NS3/4A ELISA readout.

For the compound `CNC(=O)c1c(-c2ccc(F)cc2)oc2cc(N(C)S(C)(=O)=O)c(-c3ncc4c(n3)-c3cc5ccccc5n3CCCO4)cc12` [Compound 39], the IC50 is 1.8 nM with HCV replicon genotype 1b (Hepatitis C virus, 96 h) and 2.4 nM in the assay with HCV replicon genotype 1a (Hepatitis C virus, 96 h).

As to `CNC(=O)c1c(-c2ccc(F)cc2)oc2cc(N(C)S(C)(=O)=O)c(-c3ccc4oc(=O)n5c6cccc(F)c6cc5c4n3)cc12` [Compound 54, 5-(11-fluoro-6-oxo-6H-pyrido[2′,3′:5,6][1,3]oxazino[3,4-a]indol-2-yl)-2-(4-fluorophenyl)-N-methyl-6-(N-methylmethylsulfonamido)benzofuran-3-carboxamide], the IC50 with HCV replicon genotype 1b (Hepatitis C virus, 96 h) was 39 nM; with HCV replicon genotype 1a (Hepatitis C virus, 96 h), 69 nM.

Regarding `CNC(=O)c1c(-c2ccc(F)cc2)oc2cc(N(C)S(C)(=O)=O)c(-c3ccc4c(n3)-c3cc5c(F)cccc5n3C(CO)O4)cc12` (stereo not shown) [Compound 87, 5-(11-fluoro-6-(hydroxymethyl)-6H-pyrido[2′,3′:5,6][1,3]oxazino[3,4-a]indol-2-yl)-2-(4-fluorophenyl)-N-methyl-6-(N-methylmethylsulfonamido)benzofuran-3-carboxamide], the IC50 in the assay with HCV replicon genotype 1b (Hepatitis C virus, 96 h) is 3.3 nM; in the assay with HCV replicon genotype 1a (Hepatitis C virus, 96 h) it was 3 nM.

In the case of `CNC(=O)c1c(-c2ccc(F)cc2)oc2cc(N(C)S(C)(=O)=O)c(-c3ccc4c(n3)-c3cc5c(F)cccc5n3C(CNC(=O)[C@@H]3CCCN3C(=O)OC)O4)cc12` (stereo partly shown) [Compound 126], the IC50 with HCV replicon genotype 1b was 1.4 nM; in the assay on HCV replicon genotype 1a, 2.7 nM.

Take `CNC(=O)c1c(-c2ccc(F)cc2)oc2cc(N3CCCC3=O)c(-c3ncc4c(n3)-c3cc5c(F)cccc5n3CO4)cc12` [Compound 170]: the IC50 was found to be 13 nM with HCV replicon genotype 1b (Hepatitis C virus, 96 h) and 54 nM in the assay with HCV replicon genotype 1a (Hepatitis C virus, 96 h).

For the compound `CNC(=O)c1c(-c2ccc(F)cc2)oc2cc(N(CCN3CCOCC3)S(C)(=O)=O)c(-c3ccc4c(n3)-c3cc5c(F)cccc5n3CO4)cc12` [Compound 211, 5-(11-fluoro-6H-pyrido[2′,3′:5,6][1,3]oxazino[3,4-a]indol-2-yl)-2-(4-fluorophenyl)-N-methyl-6-(N-(2-morpholinoethyl)methylsulfonamido)benzofuran-3-carboxamide], the IC50 in the assay on HCV replicon genotype 1b (Hepatitis C virus, 96 h) is 12 nM; in the assay on HCV replicon genotype 1a (Hepatitis C virus, 96 h) it was 6.5 nM.

Regarding `CNC(=O)c1c(-c2ccc(F)cc2)oc2cc(N(C)S(C)(=O)=O)c(-c3ccc4c(n3)-c3cc5c(F)cccc5n3C(C(=O)O)O4)cc12` (stereo not shown) [Compound 112], the IC50 in the assay on HCV replicon genotype 1b (Hepatitis C virus, 96 h) turned out to be 23 nM; with HCV replicon genotype 1a (Hepatitis C virus, 96 h), 20 nM.

`CN(c1cc2oc(-c3ccc(F)cc3)c(-c3ncn[nH]3)c2cc1-c1ccc2c(n1)-c1cc3c(F)cccc3n1CO2)S(C)(=O)=O` [Compound 160, N-(5-(11-fluoro-6H-pyrido[2′,3′:5,6][1,3]oxazino[3,4-a]indol-2-yl)-2-(4-fluorophenyl)-3-(1H-1,2,4-triazol-5-yl)benzofuran-6-yl)-N-methylmethanesulfonamide]: the IC50 is 16 nM in the assay with HCV replicon genotype 1b (Hepatitis C virus, 96 h) and 19 nM in the assay on HCV replicon genotype 1a (Hepatitis C virus, 96 h).

For the compound `CNC(=O)c1c(-c2ccc(F)cc2)oc2cc(N(CCCF)S(C)(=O)=O)c(-c3ccc4c(n3)-c3cc5c(F)cccc5n3CO4)cc12` [Compound 192], the IC50 in the assay on HCV replicon genotype 1b (Hepatitis C virus, 96 h) is 7.1 nM; in the assay on HCV replicon genotype 1a (Hepatitis C virus, 96 h) it was 4.6 nM.

Turning to `CNC(=O)c1c(-c2ccc(F)cc2)oc2cc(N(C)S(C)(=O)=O)c(-c3ccc4c(n3)-c3cc5c(F)cccc5n3C(CNCCOC)O4)cc12` (stereo not shown) [Compound 120], the IC50 came out at 2.1 nM in the assay with HCV replicon genotype 1b (Hepatitis C virus, 96 h) and 4.3 nM in the assay on HCV replicon genotype 1a (Hepatitis C virus, 96 h).

Take `CNC(=O)c1c(-c2ccc(F)cc2)oc2cc(N(CC(F)F)S(C)(=O)=O)c(-c3ccc4c(n3)-c3cc5c(F)cccc5n3CO4)cc12` [Compound 184, 6-(N-(2,2-difluoroethyl)methylsulfonamido)-5-(11-fluoro-6H-pyrido[2′,3′:5,6][1,3]oxazino[3,4-a]indol-2-yl)-2-(4-fluorophenyl)-N-methylbenzofuran-3-carboxamide]: the IC50 with HCV replicon genotype 1b (Hepatitis C virus, 96 h) was 6.5 nM; with HCV replicon genotype 1a (Hepatitis C virus, 96 h) it was 8.4 nM.

As for `CNC(=O)c1c(-c2ccc(F)cc2)oc2cc(N(C)S(C)(=O)=O)c(-c3ncc4c(n3)-c3cc5c(C#N)cccc5n3CO4)cc12` [Compound 26], the IC50 with HCV replicon genotype 1b (Hepatitis C virus, 96 h) was found to be 1.2 nM; in the assay with HCV replicon genotype 1a (Hepatitis C virus, 96 h), 1.1 nM.

Take `CNC(=O)c1c(-c2ccc(F)cc2)oc2cc(N(C)S(C)(=O)=O)c(-c3cc4c(cn3)OCn3c-4cc4cccnc43)cc12` [Compound 50]: the IC50 with HCV replicon genotype 1b (Hepatitis C virus, 96 h) was 4.6 nM; in the assay with HCV replicon genotype 1a (Hepatitis C virus, 96 h) it was 15 nM.

With `CNC(=O)c1c(-c2ccc(F)cc2)oc2cc(N(CCCF)S(C)(=O)=O)c(-c3ncc4c(n3)-c3cc5c(F)cccc5n3CO4)cc12` [Compound 195], the IC50 in the assay on HCV replicon genotype 1b (Hepatitis C virus, 96 h) stood at 4.1 nM; with HCV replicon genotype 1a (Hepatitis C virus, 96 h) it was 2.1 nM.

With `CNC(=O)c1c(-c2ccc(F)cc2)oc2cc(N(C)S(C)(=O)=O)c(-c3ccc4c(n3)-c3cc5ccc(F)cc5n3CO4)cc12` [Compound 17], the concentration for half-maximal inhibition (IC50) with HCV replicon genotype 1b (Hepatitis C virus, 96 h) came to 3.9 nM; in the assay on HCV replicon genotype 1a (Hepatitis C virus, 96 h), 4 nM.

As to `CNC(=O)c1c(-c2ccc(F)cc2)oc2cc(N(CC(C)O)S(C)(=O)=O)c(-c3ccc4c(n3)-c3cc5c(F)cccc5n3CO4)cc12` (stereo not shown) [Compound 203], the IC50 in the assay on HCV replicon genotype 1b turned out to be 8.9 nM; with HCV replicon genotype 1a it was 2.9 nM.

As for `CNC(=O)c1c(-c2ccc(F)cc2)oc2cc(N(C)S(C)(=O)=O)c(-c3cc4c(cn3)OCn3c-4cc4cc(F)ccc43)cc12` [Compound 35], the half-inhibitory concentration (IC50) amounted to 4.7 nM in the assay on HCV replicon genotype 1b (Hepatitis C virus, 96 h) and 2.5 nM with HCV replicon genotype 1a (Hepatitis C virus, 96 h).

Take `CNC(=O)c1c(-c2ccc(F)cc2)oc2cc(N(C)S(C)(=O)=O)c(-c3ccc4c(c3)-c3cc5ccccc5n3CC(NCCO)CO4)cc12` (stereo not shown) [Compound 85]: the IC50 came to 7.7 nM in the assay on HCV replicon genotype 1b (Hepatitis C virus, 96 h) and 13 nM in the assay on HCV replicon genotype 1a (Hepatitis C virus, 96 h).

As to `CNC(=O)c1c(-c2ccc(F)cc2)oc2cc(N(C)S(C)(=O)=O)c(-c3cnc4c(c3)-c3cc5c(F)cccc5n3CO4)cc12` [Compound 34], the IC50 worked out at 3.3 nM in the assay with HCV replicon genotype 1b (Hepatitis C virus, 96 h) and 1.4 nM in the assay on HCV replicon genotype 1a (Hepatitis C virus, 96 h).

Consider `CNC(=O)c1c(-c2ccc(F)cc2)oc2cc(N(C)S(C)(=O)=O)c(-c3cnc4c(n3)-c3cc5c(F)cccc5n3CO4)cc12` [Compound 25], for which the IC50 with HCV replicon genotype 1b (Hepatitis C virus, 96 h) turned out to be 1.8 nM; in the assay on HCV replicon genotype 1a (Hepatitis C virus, 96 h), 1 nM.

As to `CNC(=O)c1c(-c2ccc(F)cc2)oc2cc(C#N)c(-c3ccc4c(n3)-c3cc5c(F)cccc5n3CO4)cc12` [Compound 180, 6-cyano-5-(11-fluoro-6H-pyrido[2′,3′:5,6][1,3]oxazino[3,4-a]indol-2-yl)-2-(4-fluorophenyl)-N-methylbenzofuran-3-carboxamide], the IC50 with HCV replicon genotype 1b (Hepatitis C virus, 96 h) was 5.3 nM; with HCV replicon genotype 1a (Hepatitis C virus, 96 h), 3 nM.

Turning to `CNC(=O)c1c(-c2ccc(F)cc2)oc2cc(N(CC(F)F)S(C)(=O)=O)c(-c3ncc4c(n3)-c3cc5ccccc5n3CO4)cc12` [Compound 198], the IC50 in the assay with HCV replicon genotype 1b (Hepatitis C virus, 96 h) was 5.6 nM; with HCV replicon genotype 1a (Hepatitis C virus, 96 h) it was 2 nM.

Consider `CNC(=O)c1c(-c2ccc(F)cc2)oc2cc(N(C)S(C)(=O)=O)c(-c3cnc4c(c3)-c3nc5c(n3CO4)CCCC5)cc12` [Compound 141, 2-(4-fluorophenyl)-N-methyl-6-(N-methylmethylsulfonamido)-5-(8,9,10,11-tetrahydro-6H-benzo[4,5]imidazo[1,2-c]pyrido[3,2-e][1,3]oxazin-2-yl)benzofuran-3-carboxamide], for which the IC50 with HCV replicon genotype 1b (Hepatitis C virus, 96 h) was 2.4 nM; in the assay on HCV replicon genotype 1a (Hepatitis C virus, 96 h), 2.4 nM.

On to `CNC(=O)c1c(-c2ccc(F)cc2)oc2cc(N(C)S(C)(=O)=O)c(-c3ccc4c(n3)-c3nc5ccccc5n3CO4)cc12` [Compound 136], for which the IC50 came to 2.9 nM in the assay with HCV replicon genotype 1b (Hepatitis C virus, 96 h) and 3.5 nM in the assay on HCV replicon genotype 1a (Hepatitis C virus, 96 h).

Consider `CNC(=O)c1c(-c2ccc(F)cc2)oc2cc(N(C)S(C)(=O)=O)c(-c3ccc4c(n3)-c3cc5c(F)cccc5n3C(CN(C)C)O4)cc12` (stereo not shown) [Compound 121, 5-(6-((dimethylamino)methyl)-11-fluoro-6H-pyrido[2′,3′:5,6][1,3]oxazino[3,4-a]indol-2-yl)-2-(4-fluorophenyl)-N-methyl-6-(N-methylmethylsulfonamido)benzofuran-3-carboxamide], for which the IC50 in the assay on HCV replicon genotype 1b (Hepatitis C virus, 96 h) is 7.5 nM; with HCV replicon genotype 1a (Hepatitis C virus, 96 h) it was 3 nM.

As to `CNC(=O)c1c(-c2ccc(F)cc2)oc2cc(N(CC(F)F)S(C)(=O)=O)c(-c3ncc4c(n3)-c3cc5c(F)cccc5n3CO4)cc12` [Compound 186], the IC50 in the assay with HCV replicon genotype 1b (Hepatitis C virus, 96 h) amounted to 7.6 nM; with HCV replicon genotype 1a (Hepatitis C virus, 96 h) it was 4.4 nM.

As for `CNC(=O)c1c(-c2ccc(F)cc2)oc2cc(N(C)S(C)(=O)=O)c(-c3ccc4c(c3)-c3nc5cccnc5n3CO4)cc12` [Compound 135], the IC50 with HCV replicon genotype 1b (Hepatitis C virus, 96 h) worked out at 2.4 nM; with HCV replicon genotype 1a (Hepatitis C virus, 96 h), 2.4 nM.

`COC(=O)c1c(-c2ccc(F)cc2)oc2cc(N(C)S(C)(=O)=O)c(-c3ccc4c(n3)-c3cc5c(F)cccc5n3CO4)cc12` [Compound 150, methyl 5-(11-fluoro-6H-pyrido[2′,3′:5,6][1,3]oxazino[3,4-a]indol-2-yl)-2-(4-fluorophenyl)-6-(N-methylmethylsulfonamido)benzofuran-3-carboxylate]: the IC50 in the assay with HCV replicon genotype 1b (Hepatitis C virus, 96 h) came to 30 nM; with HCV replicon genotype 1a (Hepatitis C virus, 96 h) it was 38 nM.

With `CNC(=O)c1c(-c2ccc(F)cc2)oc2cc(N(C)S(C)(=O)=O)c(-c3cc4c(cn3)OCn3c-4cc4c(C#N)cccc43)cc12` [Compound 23], the IC50 with HCV replicon genotype 1b (Hepatitis C virus, 96 h) is 1.2 nM; in the assay with HCV replicon genotype 1a (Hepatitis C virus, 96 h), 0.9 nM.

On to `CNC(=O)c1c(-c2ccc(F)cc2)oc2cc(N(C)S(C)(=O)=O)c(-c3ccc4c(n3)-c3cc5c(F)cccc5n3C(CN)O4)cc12` (stereo not shown) [Compound 115, 5-(6-(aminomethyl)-11-fluoro-6H-pyrido[2′,3′:5,6][1,3]oxazino[3,4-a]indol-2-yl)-2-(4-fluorophenyl)-N-methyl-6-(N-methylmethylsulfonamido)benzofuran-3-carboxamide], for which the IC50 with HCV replicon genotype 1b amounted to 19 nM; in the assay with HCV replicon genotype 1a, 8.9 nM.

With `CNC(=O)c1c(-c2ccc(F)cc2)oc2cc(N(C)S(C)(=O)=O)c(-c3ccc4c(n3)-c3cc5c(F)cccc5n3C(CF)O4)cc12` (stereo not shown) [Compound 98, 5-(11-fluoro-6-(fluoromethyl)-6H-pyrido[2′,3′:5,6][1,3]oxazino[3,4-a]indol-2-yl)-2-(4-fluorophenyl)-N-methyl-6-(N-methylmethylsulfonamido)benzofuran-3-carboxamide], the IC50 in the assay on HCV replicon genotype 1b (Hepatitis C virus, 96 h) is 6.3 nM; with HCV replicon genotype 1a (Hepatitis C virus, 96 h), 3.9 nM.

With `CNC(=O)c1c(-c2ccc(F)cc2)oc2cc(N(CCO)S(C)(=O)=O)c(-c3ccc4c(n3)-c3cc5c(F)cccc5n3CO4)cc12` [Compound 201], the IC50 was 5.5 nM in the assay with HCV replicon genotype 1b (Hepatitis C virus, 96 h) and 2.6 nM in the assay on HCV replicon genotype 1a (Hepatitis C virus, 96 h).

What is called IC50 is the point on the concentration scale where inhibition reaches its midpoint. Higher therefore signals weaker potency in that assay.
